Results from US9452985B2, “Tau imaging probe” (GE Healthcare Limited, priority 2010, dated 2016).
Read-outs that look alike come from different tables or passages of the source. One block for each molecule: values may come before it.

What was measured:
K18-ΔK280 aggregates = K18-ΔK280 aggregates (Homo sapiens (Human), UniProt P10636, DEL597-597); assay: Competitive binding test using [^18F] THK-5105 as radioactive competitor; conditions: radioactive ligand [^18F] THK-5105 1.76 nM, K18-ΔK280 aggregates 200 nM, room temperature, one hour
Method: Regarding the binding of tau imaging probes to tau protein aggregates, a binding test was carried out and evaluated using a K18-ΔK280 construct which contained a 4-repeat structure involved in the formation of beta-sheet structures in the htau40 protein. For K18-ΔK280 (Martin von Bergen et al., THE JOURNAL OF BIOLOGICAL CHEMISTRY (2001), vol. 276, pp. 48165-48174; M. Goedert et al., NEURON (1989), vol. 3, pp. 519-526), an artificial gene fragment which was prepared based on its amino acid sequence was cloned into a pET-3a vector, the resulting plasmid was used to transform Escherichia coli BL21 (DE3) competent cells for protein expression, and the recombinant Escherichia coli cell was cultured to express K18-ΔK280. The K18-ΔK280 expressed was purified according to the method described in the literature (Stefan Barghorn et al., Methods in Molecular Biology, vol. 299, pp. 35-51). In the binding test, aggregates of the purified K18-ΔK280 were made and used.
K18-ΔK280 aggregates were made by preparing 20 μM PBS (pH 7.4) and incubating the K18-ΔK280 in the PBS at 37° C. for 4 days. The state where beta-sheet structures in K18-ΔK280 aggregates were formed was ascertained by thioflavin S fluorescence binding test. The aggregates solution was diluted to 400 nM in assay buffer (PBS, 0.1% BSA) and used in the binding test.
For tau imaging probes other than THK-5105, binding to K18-ΔK280 aggregates was evaluated with a competitive binding test using [^18F] THK-5105 as a radioactive competitor. In the binding test, [^18F] THK-5105 (at a final concentration of 1.76 nM) and a tested compound (at final concentrations of from 0.1 to 1000 nM) coexisted in the reaction system, to which K18-ΔK280 aggregates (at a final concentration of 200 nM) was then added and the mixtures were incubated at room temperature for one hour. The radioactivity of [^18F] THK-5105 binding to the aggregates was determined in a similar way as in the saturation binding test of THK-5105. The percentage of [^18F] THK-5105 bonding in the absence of each tested compound was set to be 100%, and percentages of [^18F] THK-5105 bonding at various concentrations of each of the tested compounds were determined.

neurofibrillary tangles = assay: Staining test on brain section of Alzheimer's disease patients; format: binding, human; conditions: 100 μM solution in 50% ethanol, 10 minutes, fluorescence microscope
Text: The procedure of staining test on the compounds of the present invention on the brain section of Alzheimer's disease patients is described below:
(1) We used the brain specimens of the temporal lobe or hippocampus from patients who were definitely diagnosed as having Alzheimer's disease pathology. The specimens were obtained from Choju Medical Institute, Fukushimura Hospital, our collaborating research institute, and the consent for use for research purposes was obtained from the patients' bereaved family (Fukushimura Hospital, Ethics Committee Approval No. 20).
(2) The paraffin-embedded brain tissue was sliced to 6 or 8 μm thickness, extended on a slide glass, and dried. The paraffinized brain section was deparaffinized by washing with xylene for 10 minutes×2, 100% ethanol for 5 minutes×2, 90% ethanol for 5 minutes, and running water for 10 minutes in this order.
(3) As a pretreatment for staining with the compounds of the present invention, the treatment to remove autofluorescence with lipofuscin was performed. First, the paraffinized brain section was immersed in 0.25% KMnO4 solution for 20 minutes. It was washed with PBS for 2 minutes twice, immersed in a 0.1% K2S2O5/oxalic acid solution for approximately 5 minutes, and further washed with PBS for 2 minutes 3 times.
(4) From 100 μM solution of the compounds of the present invention dissolved in 50% ethanol, approximately 150 μl was dropped on the section to react for 10 minutes. After being immersed in tap water 5 times, it was mounted with Flour Save Reagent (Calbiochem) and examined with a fluorescence microscope (Nikon, ECLIPSE 80i). The images were taken with a digital camera (Nikon, Dxin1200F or Photometrics, Cool SNAP ES).

[1] = system: neurofibrillary tangles (tau protein); assay: Autoradiography test with [^18F] BF-227 and [^18F] THK-5035 on brain section of Alzheimer's disease patients; format: binding, human; conditions: approximately 400 μCi/ml, 10 minutes
Method: After the paraffin-embedded brain section of Alzheimer's disease patients was deparaffinized, it was immersed in PBS for 10 minutes. Approximately 400 μCi/ml of [^18F] BF-227 and [^18F] THK-5035 were dropped on the section to react for 10 minutes at room temperature. It was immersed in distilled water for 2 minutes, shaken in 50% EtOH lightly for 2 minutes, immersed again in distilled water for 2 minutes, and dried in a paraffin extension device. The section was contacted on an imaging plate and settled overnight, and the next day, the images were read with a BAS5000 (Fujifilm Corporation). Furthermore, the serial section was immunostained with thioflavine-S staining and anti-tau antibody (AT8).

[2] = Evaluation of brain delivery of [^18F] THK-5105, [^18F] THK-5117 and [^18F] THK-5125 in mice; format: in vivo, male ICR mice; conditions: tail vein
[3] = system: neurofibrillary tangles (tau protein); assay: Autoradiography experiments using [^18F] THK-5105, [^18F] THK-5117 and [^18F] THK-5125; format: binding, human; conditions: for affinity to neurofibrillary tangles (tau protein), autoradiography / accumulation in autoradiography of sections of the lateral temporal cortex and of the medial temporal cortex: Alzheimer's disease patient brain sections; for accumulation in autoradiography of sections of the lateral temporal cortex and of the medial temporal cortex: approximately 400 μCi/ml, 10 minutes
Method: Paraffin-embedded sections of the brain from an Alzheimer's disease patient were deparaffinized, and then immersed in PBS for 10 minutes. Approximately 400 μCi/ml of each of [^18F] THK-5105, [^18F] THK-5117, and [^18F] THK-5125 was added dropwise to deparaffinized sections and allowed to react for 10 minutes at room temperature. After that, the sections were immersed in distilled water for 2 minutes, shaken lightly in 50% EtOH for 2 minutes, immersed again in distilled water for 2 minutes, and dried in a paraffin stretching device. The section was left overnight in contact with an imaging plate. Next day, the image was read with a BAS 5000 (Fujifilm Corporation). In addition, adjacent sections were immunostained with anti-phosphorylated tau antibody (AT8).

[4] = Evaluation of brain delivery of [^18F] THK-5105, [^18F] THK-5117 and [^18F] THK-5125 in mice; format: in vivo, male ICR mice; conditions: for delivery to and washout from the brain / % ID/g 2 minutes post-administration: mice; for delivery to and washout from the brain: compared with [^18F] BAY94-9172, [^18F] AV-45 and [^18F] FDDNP; for % ID/g 2 minutes post-administration: tail vein, brain; for 2 minutes post-administration/60 minutes post-administration: quotient of brain % ID/g values
Method: A physiological saline solution containing [^18F] THK-5105, [^18F] THK-5117, or [^18F] THK-5125 was administered into the tail vein of male ICR mice (6 to 7 weeks old), and brain delivery of these label compounds was assessed from the accumulation of radioactivity in brain and plasma tissues at two minutes post-injection.
As an index in the evaluation of radioactive accumulation, use was made of the percentage of radioactivity per unit weight of brain relative to the total radioactivity administered (% Injected Dose/g of tissue; % ID/g). For measurement of radioactivity, a gamma counter (1480 WIZARD, Perkin Elmer) was used. Experimental procedures were as follows. A label compound was administered into the tail vein of mice. Two minutes later, each mouse was subjected to cervical dislocation under ether anesthesia, and the whole brain, including the cerebellum and brain stem, was isolated immediately. The radioactivity and tissue weight of the sample were measured, and their data were used to calculate a % ID/g values for the labeled compound.

[5] = data taken from Zhang et al. 2005 / Choi et al. 2009, cited from earlier work; for % ID/g 2 minutes post-administration / % ID/g 60 minutes post-administration: brain; for 2 minutes post-administration/60 minutes post-administration: quotient of brain % ID/g values

Sequence of K18-ΔK280 aggregates (P10636 other isoform, or with tags, fused parts or gaps del 597-597): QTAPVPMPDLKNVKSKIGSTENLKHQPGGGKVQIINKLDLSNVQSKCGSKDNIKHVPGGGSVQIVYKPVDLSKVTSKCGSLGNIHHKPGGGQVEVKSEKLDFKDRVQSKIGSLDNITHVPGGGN

Structure (SMILES): CC(=C(C#N)C#N)c1ccc2cc(N(C)CCF)ccc2c1 [FDDNP, reference compound]
Ki (K18-ΔK280 aggregates): 256 nM

Structure (SMILES): CN(C)c1ncc(C=Cc2nc3ccc(OCCF)cc3o2)s1 [[^18F] BF-227]
accumulation in the region where [^18F] THK-5035 was accumulated (anti-tau antibody positive region), autoradiography [1]: no accumulation

Structure (SMILES): CN(C)c1ccc(-c2ccc3cc(OC[C@H](O)C[18F])ccc3n2)cc1 [[^18F] THK-5105]
% ID/g 60 minutes post-administration [2]: 1.00 % ID/g
affinity to neurofibrillary tangles (tau protein), autoradiography [3]: high affinity to neurofibrillary tangles (tau protein)
accumulation in autoradiography of sections of the lateral temporal cortex and of the medial temporal cortex [3]: accumulated in the lateral temporal cortex and medial temporal cortex
correspondence of autoradiography / unlabeled staining image with anti-phosphorylated tau antibody (AT8) immunostaining ([3]; hippocampus section and adjacent sections, higher magnification images): corresponded well with the image of immunostaining with the anti-phosphorylated tau antibody
delivery to and washout from the brain [4]: superior in being delivered to and washed out from the brain
% ID/g 2 minutes post-administration [4]: 9.20 % ID/g
2 minutes post-administration/60 minutes post-administration [4]: 9.20

Structure (SMILES): CNc1ccc(-c2ccc3cc(OCC(O)C[18F])ccc3n2)cc1 (stereo not drawn) [[^18F] THK-5117]
% ID/g 60 minutes post-administration [2]: 0.26 % ID/g
affinity to neurofibrillary tangles (tau protein), autoradiography [3]: high affinity to neurofibrillary tangles (tau protein)
accumulation in autoradiography of sections of the lateral temporal cortex and of the medial temporal cortex [3]: accumulated in the lateral temporal cortex and medial temporal cortex
delivery to and washout from the brain [4]: superior in being delivered to and washed out from the brain
% ID/g 2 minutes post-administration [4]: 6.06 % ID/g
2 minutes post-administration/60 minutes post-administration [4]: 23.3

Structure (SMILES): CNc1ccc(/C=C/c2ccc(OCCOCCOCC[18F])nc2)cc1 [[^18F]AV-45]
% ID/g 2 minutes post-administration [5]: 7.33 % ID/g
% ID/g 60 minutes post-administration [5]: 1.88 % ID/g
2 minutes post-administration/60 minutes post-administration [5]: 3.90

Structure (SMILES): CNc1ccc(/C=C/c2ccc(OCCOCCOCC[18F])cc2)cc1 [[^18F]BAY94-9172]
% ID/g 2 minutes post-administration [5]: 7.77 % ID/g
% ID/g 60 minutes post-administration [5]: 1.61 % ID/g
2 minutes post-administration/60 minutes post-administration [5]: 4.83

Structure (SMILES): CC(=C(C#N)C#N)c1ccc2cc(N(C)CCF)ccc2c1 [[^18F]FDDNP, reference compound]
% ID/g 60 minutes post-administration [2]: 2.14 % ID/g
% ID/g 2 minutes post-administration [4]: 6.23 % ID/g
2 minutes post-administration/60 minutes post-administration [4]: 2.91

Second part, led by results:

Ki (K18-ΔK280 aggregates): 59.3 nM
Structure (SMILES): Nc1ccc(-c2ccc3cc(OCCF)ccc3n2)cc1 [THK-523, reference compound]

Ki (K18-ΔK280 aggregates): 36 nM
Structure (SMILES): Nc1ccc(-c2ccc3cc(OCC(O)CF)ccc3n2)cc1 (stereo not drawn) [THK-5116, 2-(4-aminophenyl)-6-[(3-fluoro-2-hydroxy)propoxy]quinoline]
binding to neurofibrillary tangles in the brain section of Alzheimer's disease patients (staining test) (neurofibrillary tangles): bind to neurofibrillary tangles specifically and selectively

Ki (K18-ΔK280 aggregates): 10.5 nM
Structure (SMILES): CNc1ccc(-c2ccc3cc(OCC(O)CF)ccc3n2)cc1 (stereo not drawn) [THK-5117, 6-[(3-fluoro-2-hydroxy)propoxy]-2-(4-methylaminophenyl)quinoline]
binding to neurofibrillary tangles in the brain section of Alzheimer's disease patients (staining test) (neurofibrillary tangles): bind to neurofibrillary tangles specifically and selectively

Ki (K18-ΔK280 aggregates): 34.9 nM
Structure (SMILES): CCN(CC)c1ccc(-c2ccc3cc(OCC(O)CF)ccc3n2)cc1 (stereo not drawn) [THK-5122, 6-[(3-fluoro-2-hydroxy)propoxy]-2-(4-diethylaminophenyl)quinoline]

Ki (K18-ΔK280 aggregates): 9.2 nM
Structure (SMILES): CCNc1ccc(-c2ccc3cc(OCC(O)CF)ccc3n2)cc1 (stereo not drawn) [THK-5125, 2-(4-ethylaminophenyl)-6-[(3-fluoro-2-hydroxy)propoxy]quinoline]

Ki (K18-ΔK280 aggregates): 21.4 nM
Structure (SMILES): CN(C)c1ccc(-c2ccc3cc(OCC(O)CF)ccc3n2)cn1 (stereo not drawn) [THK-5129, 6-[(3-fluoro-2-hydroxy)propoxy]-2-(2-dimethylaminopyrid-5-yl)quinoline]

Ki (K18-ΔK280 aggregates): 40.1 nM
Structure (SMILES): CNc1ccc(-c2ccc3cc(OCC(O)CF)ccc3n2)cn1 (stereo not drawn) [THK-5151, 2-(2-methylaminopyrid-5-yl)-6-[(3-fluoro-2-hydroxy)propoxy]quinoline]
